# Measured values from ChEMBL document CHEMBL1135389, “7-Substituted 5-amino-2-(2-furyl)pyrazolo[4,3-e]-1,2,4-triazolo[1,5-c]pyrimidines as A2A adenosine receptor antagonists: a study on the importance of modifications at the side chain on the activity and solubility” (J Med Chem, 2002).
# pKi: −log10 of the molar value.
# What was measured:
# Adenosine receptor A3 = target: T1, Adenosine receptor A3 (Homo sapiens, UniProt P0DMS8); assay: Displacement of specific [3H]MRE3008-F20 binding at human adenosine A3 receptor expressed in CHO cells.; type: cell-based
# T1 sequence (P0DMS8 whole entry): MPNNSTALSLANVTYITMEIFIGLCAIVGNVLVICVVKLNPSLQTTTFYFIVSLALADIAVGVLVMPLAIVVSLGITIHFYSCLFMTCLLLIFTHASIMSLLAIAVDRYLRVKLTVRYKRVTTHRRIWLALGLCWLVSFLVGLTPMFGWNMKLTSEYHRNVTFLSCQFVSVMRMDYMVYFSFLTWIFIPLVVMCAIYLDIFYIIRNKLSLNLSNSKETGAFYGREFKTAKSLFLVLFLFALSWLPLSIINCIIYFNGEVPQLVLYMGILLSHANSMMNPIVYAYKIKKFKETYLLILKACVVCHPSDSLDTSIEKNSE
# Adenosine receptor A2b [1] = target: T2, Adenosine receptor A2b (Homo sapiens, UniProt P29275); assay: biochemical
# T2 sequence (P29275 whole entry): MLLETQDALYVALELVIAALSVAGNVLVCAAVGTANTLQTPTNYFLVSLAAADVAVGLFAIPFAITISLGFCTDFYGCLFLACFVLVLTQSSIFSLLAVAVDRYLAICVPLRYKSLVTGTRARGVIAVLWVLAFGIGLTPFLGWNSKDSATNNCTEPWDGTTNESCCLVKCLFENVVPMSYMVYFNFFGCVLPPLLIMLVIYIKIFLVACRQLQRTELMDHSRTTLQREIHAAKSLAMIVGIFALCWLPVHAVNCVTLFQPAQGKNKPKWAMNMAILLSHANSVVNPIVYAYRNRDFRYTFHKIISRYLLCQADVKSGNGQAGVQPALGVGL
# Description: (§1) Displacement of specific [3H]DPCPX binding at human adenosine A2B receptor expressed in HEK293 cells.
# Adenosine receptor A1 [2] = target: T3, Adenosine receptor A1 (Homo sapiens, UniProt P30542); assay: biochemical
# T3 sequence (P30542 whole entry): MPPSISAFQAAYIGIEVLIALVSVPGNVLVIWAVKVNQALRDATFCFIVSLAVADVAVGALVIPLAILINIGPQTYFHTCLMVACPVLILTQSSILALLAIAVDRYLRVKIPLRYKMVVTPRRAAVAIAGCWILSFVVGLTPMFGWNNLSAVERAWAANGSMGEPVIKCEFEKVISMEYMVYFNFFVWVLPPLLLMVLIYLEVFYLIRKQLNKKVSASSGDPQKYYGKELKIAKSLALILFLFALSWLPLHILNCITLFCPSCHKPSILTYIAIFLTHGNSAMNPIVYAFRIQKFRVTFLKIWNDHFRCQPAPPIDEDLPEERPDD
# Description: Displacement of specific [3H]DPCPX binding at human Adenosine A1 receptor expressed in CHO cells.
# Adenosine receptor A2a [3] = target: T4, Adenosine receptor A2a (Homo sapiens, UniProt P29274); assay: biochemical
# T4 sequence (P29274 whole entry): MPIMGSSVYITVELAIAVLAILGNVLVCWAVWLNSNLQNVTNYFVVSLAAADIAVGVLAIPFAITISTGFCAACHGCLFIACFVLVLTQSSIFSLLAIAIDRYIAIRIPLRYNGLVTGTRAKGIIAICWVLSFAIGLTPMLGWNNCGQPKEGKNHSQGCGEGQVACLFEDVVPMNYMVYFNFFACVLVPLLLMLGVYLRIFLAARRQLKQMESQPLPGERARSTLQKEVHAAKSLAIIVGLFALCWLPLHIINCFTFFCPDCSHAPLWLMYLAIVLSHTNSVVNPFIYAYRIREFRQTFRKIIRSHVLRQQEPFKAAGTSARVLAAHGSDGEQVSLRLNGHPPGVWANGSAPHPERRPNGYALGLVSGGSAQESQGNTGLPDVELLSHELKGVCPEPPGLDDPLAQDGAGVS
# Adenosine receptor A1 [4] = target: T3, Adenosine receptor A1; assay: Displacement of [3H]DPCPX from human Adenosine A1 receptor expressed in CHO cells; ranges from 3420-3788; type: cell-based
# Adenosine receptor A2a [5] = target: T4, Adenosine receptor A2a; assay: Displacement of [3H]-SCH- 58261 binding at human Adenosine A2A receptor expressed in HEK293 cells; ranges from 49-72; type: cell-based
# Adenosine receptor A2a [6] = target: T4, Adenosine receptor A2a; assay: Displacement of [3H]-SCH- 58261 binding at human Adenosine A2A receptor expressed in HEK293 cells; ranges from 0.69-0.92; type: cell-based
# Adenosine receptor A1 [7] = target: T3, Adenosine receptor A1; assay: Displacement of [3H]-DPCPX from human Adenosine A1 receptor expressed in CHO cells; ranges from 2153-2891; type: cell-based
# Adenosine receptor A1 [8] = target: T3, Adenosine receptor A1; assay: Displacement of [3H]DPCPX binding at human Adenosine A1 receptor expressed in CHO cells; ranges from 8783-9911; type: cell-based
# Adenosine receptor A2a [9] = target: T4, Adenosine receptor A2a; assay: Displacement of [3H]-SCH- 58261 binding at human Adenosine A2A receptor expressed in HEK293 cells; ranges from 48.9-52.4; type: cell-based
# Adenosine receptor A2a [10] = target: T4, Adenosine receptor A2a; assay: Displacement of [3H]-SCH- 58261 binding at human Adenosine A2A receptor expressed in HEK293 cells; ranges from 66-85; type: cell-based
# Adenosine receptor A1 [11] = target: T3, Adenosine receptor A1; assay: Displacement of [3H]DPCPX binding at human Adenosine A1 receptor expressed in CHO cells; ranges from 5697-7171; type: cell-based
# Adenosine receptor A2a [12] = target: T4, Adenosine receptor A2a; assay: Displacement of [3H]-SCH- 58261 binding at human Adenosine A2A receptor expressed in HEK293 cells; ranges from 129-152; type: cell-based
# Adenosine receptor A1 [13] = target: T3, Adenosine receptor A1; assay: Displacement of [3H]-DPCPX from human Adenosine A1 receptor expressed in CHO cells; ranges from 107-181; type: cell-based
# Adenosine receptor A2a [14] = target: T4, Adenosine receptor A2a; assay: Displacement of [3H]-SCH- 58261 binding at human Adenosine A2A receptor expressed in HEK293 cells; ranges from 98-144; type: cell-based
# Adenosine receptor A2b [15] = target: T2, Adenosine receptor A2b; conditions: hek293
# Description: as §1
# Adenosine receptor A1 [16] = target: T3, Adenosine receptor A1; assay: Displacement of [3H]DPCPX from human Adenosine A1 receptor expressed in CHO cells; ranges from 9038-9773; type: cell-based
# Adenosine receptor A2a [17] = target: T4, Adenosine receptor A2a; assay: Displacement of [3H]-SCH- 58261 from human Adenosine A2A receptor expressed in HEK293 cells; ranges from 4.95-6.08; type: cell-based
# Adenosine receptor A1 [18] = target: T3, Adenosine receptor A1; assay: Displacement of [3H]DPCPX from human Adenosine A1 receptor expressed in CHO cells; ranges from 1460-2201; type: cell-based
# Adenosine receptor A1 [19] = target: T3, Adenosine receptor A1; assay: Displacement of [3H]-DPCPX binding at human Adenosine A1 receptor expressed in CHO cells; ranges from 9257-9817; type: cell-based
# Adenosine receptor A2a [20] = target: T4, Adenosine receptor A2a; assay: biochemical; remark: listed apart in the source
# Adenosine receptor A1 [21] = target: T3, Adenosine receptor A1; assay: Displacement of [3H]DPCPX binding at human Adenosine A1 receptor expressed in CHO cells; ranges from 363-514; type: cell-based
# Adenosine receptor A2a [22] = target: T4, Adenosine receptor A2a; assay: biochemical; remark: listed apart in the source
# Adenosine receptor A1 [23] = target: T3, Adenosine receptor A1; assay: Displacement of [3H]DPCPX from human Adenosine A1 receptor expressed in CHO cells; ranges from 324-420; type: cell-based
SMILES,pKi (Adenosine receptor A3),pKi (Adenosine receptor A2b [1]),pKi (Adenosine receptor A1 [2]),pKi (Adenosine receptor A2a [3]),other results
Nc1nc2c(cnn2CCc2ccc(N(CCO)CCO)cc2)c2nc(-c3ccco3)nn12,< 5.00,< 5.00,6.91,9.92,
Nc1nc2c(cnn2CCCc2ccc3c(c2)O[C@H](C(=O)O)O3)c2nc(-c3ccco3)nn12,< 5.00,< 5.00,,,pKi (Adenosine receptor A1 [4]): 5.44; pKi (Adenosine receptor A2a [5]): 7.23
Nc1nc2c(cnn2CCc2ccc(S(=O)(=O)N(CCO)CCO)cc2)c2nc(-c3ccco3)nn12,< 5.00,< 5.00,,,pKi (Adenosine receptor A2a [6]): 9.10; pKi (Adenosine receptor A1 [7]): 5.60
Nc1nc2c(cnn2CCc2ccc(S(=O)(=O)NCC(=O)O)cc2)c2nc(-c3ccco3)nn12,< 5.00,< 5.00,,,pKi (Adenosine receptor A1 [8]): 5.03; pKi (Adenosine receptor A2a [9]): 7.30
Nc1nc2c(cnn2CCCc2cc3c(cc2S(=O)(=O)O)OCO3)c2nc(-c3ccco3)nn12,< 5.00,< 5.00,,,pKi (Adenosine receptor A2a [10]): 7.12; pKi (Adenosine receptor A1 [11]): 5.19
Nc1nc2c(cnn2CCc2ccc(S(=O)(=O)N(CCCl)CCCl)cc2)c2nc(-c3ccco3)nn12,< 5.00,< 5.00,5.28,9.23,
Nc1nc2c(cnn2CCCc2ccc3c(c2)OC(C(=O)O)(C(=O)O)O3)c2nc(-c3ccco3)nn12 [listing 1 of 2 here],,,,,pKi (Adenosine receptor A3; cho): < 5.00; pKi (Adenosine receptor A2a [14]): 6.92; pKi (Adenosine receptor A2b [15]): < 5.00; pKi (Adenosine receptor A1 [16]): 5.03
CCOC(=O)[C@@H]1Oc2ccc(CCCn3ncc4c3nc(N)n3nc(-c5ccco5)nc43)cc2O1,< 5.00,< 5.00,,,pKi (Adenosine receptor A2a [17]): 8.26; pKi (Adenosine receptor A1 [18]): 5.75
Nc1nc2c(cnn2CCCc2ccc3c(c2)OC(C(=O)O)(C(=O)O)O3)c2nc(-c3ccco3)nn12 [listing 2 of 2 here],< 5.00,< 5.00,,,pKi (Adenosine receptor A1 [19]): 5.02; pKi (Adenosine receptor A2a [14]): 6.92
Nc1nc2c(cnn2CCCc2ccc3c(c2)OC(CO)(CO)O3)c2nc(-c3ccco3)nn12,< 5.00,< 5.00,,,pKi (Adenosine receptor A2a [20]): 9.72; pKi (Adenosine receptor A1 [21]): 6.36
CN1CCN(S(=O)(=O)c2ccc(CCn3ncc4c3nc(N)n3nc(-c5ccco5)nc43)cc2)CC1,< 5.00,< 5.00,,,pKi (Adenosine receptor A2a [22]): 8.42; pKi (Adenosine receptor A1 [23]): 6.43

# Further lines, with some results ahead:
pKi (Adenosine receptor A3),pKi (Adenosine receptor A2b [1]),pKi (Adenosine receptor A1 [2]),pKi (Adenosine receptor A2a [3]),SMILES,other results
< 5.00,< 5.00,6.75,9.74,N/C(=N\O)c1ccc(CCn2ncc3c2nc(N)n2nc(-c4ccco4)nc32)cc1,
< 5.00,< 5.00,5.19,7.07,N#Cc1ccc(CCCn2ncc3c2nc(N)n2nc(-c4ccco4)nc32)cc1,
< 5.00,< 5.00,5.38,9.37,CCOC(=O)COc1ccc(CCn2ncc3c2nc(N)n2nc(-c4ccco4)nc32)cc1,
< 5.00,< 5.00,5.99,9.00,Nc1nc2c(cnn2CCCc2ccc([N+](=O)[O-])cc2)c2nc(-c3ccco3)nn12,
< 5.00,< 5.00,6.24,9.89,Nc1ccc(CCn2ncc3c2nc(N)n2nc(-c4ccco4)nc32)cc1,
< 5.00,< 5.00,7.22,8.22,NCc1ccc(CCCn2ncc3c2nc(N)n2nc(-c4ccco4)nc32)cc1,
< 5.00,< 5.00,6.38,8.32,CC(=O)Nc1ccc(CCn2ncc3c2nc(N)n2nc(-c4ccco4)nc32)cc1,
< 5.00,< 5.00,7.22,8.22,N/C(=N/O)c1ccc(CCCn2ncc3c2nc(N)n2nc(-c4ccco4)nc32)cc1,
< 5.00,< 5.00,6.72,7.00,Nc1nc2c(cnn2CCc2ccc(S(=O)(=O)O)cc2)c2nc(-c3ccco3)nn12,
< 5.00,< 5.00,5.58,8.88,Nc1nc2c(cnn2CCc2ccc(S(N)(=O)=O)cc2)c2nc(-c3ccco3)nn12,
< 5.00,< 5.00,,,Nc1nc2c(cnn2CCCc2ccc(S(=O)(=O)O)cc2)c2nc(-c3ccco3)nn12,pKi (Adenosine receptor A2a [12]): 6.85; pKi (Adenosine receptor A1 [13]): 6.86
< 5.00,< 5.00,6.25,8.96,Nc1nc2c(cnn2CCCc2ccc(N(CCO)CCO)cc2)c2nc(-c3ccco3)nn12,
< 5.00,< 5.00,5.30,8.36,Nc1nc2c(cnn2CCCc2ccc(C(=O)O)cc2)c2nc(-c3ccco3)nn12,
< 5.00,< 5.00,7.12,7.26,N=C(N)c1ccc(CCCn2ncc3c2nc(N)n2nc(-c4ccco4)nc32)cc1,
< 5.00,< 5.00,5.67,9.66,Nc1ccc(CCCn2ncc3c2nc(N)n2nc(-c4ccco4)nc32)cc1,
< 5.00,< 5.00,5.35,8.40,CCOC(=O)c1ccc(CCCn2ncc3c2nc(N)n2nc(-c4ccco4)nc32)cc1,
,< 5.00,6.46,8.92,Nc1nc2c(cnn2CCCc2ccccc2)c2nc(-c3ccco3)nn12 [SCH-63390],
